One data set concerns S. marcescens ATCC 8100. Kind of data set: Broth microdilution MIC, ATCC strains. Type of data set: cell-based. The following applies: Serratia marcescens. The method, boiled down: (§1)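 Clinical organisms, randomly drawn NAUTICA urinary isolates, and ATCC reference strains tested by NCCLS M7-A6 broth microdilution at 5×10^5 CFU/ml. Incubation 16 to 20 hours, 35° C, ambient air; MIC defined as lowest concentration without visible growth.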

Another data set has as its system E. aerogenes ATCC 13048. Nature of the data set: Broth microdilution MIC, ATCC strains. The data set is classed as cell-based. The following applies: Klebsiella aerogenes. The method, boiled down: as §1
For orientation: In broth dilution the organism is exposed to a series of concentrations in liquid medium.

Data set [1] has as its system Ps. aeruginosa ATCC 27853. Kind of data set: Broth microdilution MIC, ATCC strains. The data set is classed as cell-based. The following applies: Pseudomonas aeruginosa. Put shortly: as §1
The subject of data set [2] is S. saprophyticus ATCC 15305. Kind of data set: Broth microdilution MIC, ATCC strains. The data set is classed as cell-based. The following applies: Staphylococcus saprophyticus. The method, boiled down:
as §1

Data set [3] concerns S. maltophilia ATCC 13637. Kind of data set: Broth microdilution MIC, ATCC strains. The data set is classed as cell-based. The note with it: Stenotrophomonas maltophilia, ATCC13637; S. maltophilia ATCC 13637; read-out: MIC (growth inhibition, microdilution method). Put shortly:
as §1

The test system of the next data set is MRSA ATCC 33591. Nature of the data set: Broth microdilution MIC, ATCC strains. The data set is classed as cell-based. The following applies: Staphylococcus aureus; MRSA ATCC 33591; read-out: MIC (growth inhibition, microdilution method). Put shortly: as §1
The test system of another data set is E. cloacae ATCC 23355. Nature of the data set: Broth microdilution MIC, ATCC strains. The data set is classed as cell-based. The following applies: Enterobacter cloacae. Put shortly: as §1
Another data set concerns S. aureus ATCC 29213. Nature of the data set: Broth microdilution MIC, ATCC strains. The data set is classed as cell-based. The following applies: Staphylococcus aureus. Put shortly:
as §1

In a further data set the test system is K. oxytoca ATCC 49131. Kind of data set: Broth microdilution MIC, ATCC strains. Type of data set: cell-based. The following applies: Klebsiella oxytoca. Put shortly: as §1
The subject of the next data set is E. faecalis ATCC 29212. Nature of the data set: Broth microdilution MIC, ATCC strains. The data set is classed as cell-based. The following applies: Enterococcus faecalis, read-out: MIC (growth inhibition, microdilution method). Put shortly:
as §1

Data set [4] deals with Ps. aeruginosa clinical isolates. Nature of the data set: Broth microdilution MIC, clinical isolate strains (NAUTICA). Type of data set: cell-based. The note with it: Table 4B; each table row is one clinical isolate; unit assumed. The method, boiled down: as §1
[5] abbreviates: ATCC27853, Ps. aeruginosa ATCC 27853, read-out: MIC (growth inhibition, microdilution method).
Setting [6] is: ATCC29212, E. faecalis ATCC 29212.
[7] abbreviates: ATCC29212, E. faecalis, ATCC number not given.
Where [8] appears, read: ATCC8100, S. marcescens ATCC 8100, read-out: MIC (growth inhibition, microdilution method).
Where [9] appears, read: ATCC13048, E. aerogenes ATCC 13048, read-out: MIC (growth inhibition, microdilution method).
[10] abbreviates: ATCC15305, S. saprophyticus ATCC 15305, read-out: MIC (growth inhibition, microdilution method).
The mark [11] stands for this setting: ATCC23355, E. cloacae ATCC 23355, read-out: MIC (growth inhibition, microdilution method).
Setting [12] is: ATCC29213, S. aureus ATCC 29213, read-out: MIC (growth inhibition, microdilution method).
The mark [13] stands for this setting: ATCC49131, K. oxytoca ATCC 49131, read-out: MIC (growth inhibition, microdilution method).

For five compounds, melting point, MIC and MIC, PS. AER results are on record in patent publication US8835476B2, “Synthesis of novel antimicrobials” (priority 2005, dated 2014).

≈ marks a conversion by molar mass, not a printed value. Where two headings read alike, the source gives them in different places.

The melting point is the temperature of the solid-liquid transition. A word on the MIC: it is the smallest concentration in the dilution series that meets the test's criterion for growth inhibition. As for `COC(=O)c1cc(-c2nnn(C)n2)c(C(=O)OC)s1` [DNM-114, 3-(2-methyl-2H-tetrazol-5-yl)-thiophene-2,5-dicarboxylic acid dimethyl ester], the melting point lay in the range of 121 to 122 °C. Also, in the data set with S. marcescens ATCC 8100 (ATCC8100, read-out: MIC (growth inhibition, microdilution method)), the MIC was 128 µg/mL (≈ 453 µM). Further, the MIC in the data set on E. aerogenes ATCC 13048 (ATCC13048, read-out: MIC (growth inhibition, microdilution method)) turned out to be 128 µg/mL (≈ 453 µM). The MIC in [1] (ATCC27853, read-out: MIC (growth inhibition, microdilution method), Ps. aeruginosa ATCC 27853) came out at 128 µg/mL (≈ 453 µM). Further, in data set [1] (setting [5]), the minimal inhibitory concentration (MIC) was determined as 64 µg/mL (≈ 227 µM). In addition, in [2] (ATCC15305, read-out: MIC (growth inhibition, microdilution method)), the MIC was determined as 128 µg/mL (≈ 453 µM). For the same compound, the MIC in [3] came out at 64 µg/mL (≈ 227 µM). Besides, in the data set on MRSA ATCC 33591, the MIC came out at 256 µg/mL (≈ 907 µM). For the same compound, the MIC in the data set with E. cloacae ATCC 23355 (ATCC23355, read-out: MIC (growth inhibition, microdilution method)) was found to be 128 µg/mL (≈ 453 µM). Also, in the data set on S. aureus ATCC 29213 (ATCC29213, read-out: MIC (growth inhibition, microdilution method)), the MIC was 128 µg/mL (≈ 453 µM). Moreover, the MIC in the data set with K. oxytoca ATCC 49131 (ATCC49131, read-out: MIC (growth inhibition, microdilution method)) was 128 µg/mL (≈ 453 µM). In addition, in the data set with E. faecalis ATCC 29212 (setting [6]), the MIC was found to be 8 µg/mL (≈ 28.3 µM). Besides, the MIC in the data set with E. faecalis ATCC 29212 (setting [7]) stood at 8 µg/mL (≈ 28.3 µM).

Regarding `CCOC(=O)c1cc(-c2nnn(C)n2)c(-c2ccc(F)cc2)s1` [DNM-125, ethyl 5-(4-fluorophenyl)-4-(2-methyl-2H-tetrazol-5-yl)thiophene-2-carboxylate], the melting point was 108 to 110 °C. Further, in [4], the MIC, PS. AER was more than 16 µg/mL. Also, the MIC in the data set on S. marcescens ATCC 8100 (setting [8]) was more than 16 µg/mL. In the data set with E. aerogenes ATCC 13048 (setting [9]), the MIC is more than 16 µg/mL. Further, the MIC in data set [1] (setting [5]) is more than 16 µg/mL. Moreover, the MIC in [2] (setting [10]) was more than 16 µg/mL. For the same compound, the MIC in data set [3] is more than 16 µg/mL. Also, the MIC in the data set with MRSA ATCC 33591 is more than 16 µg/mL. For the same compound, in the data set on E. cloacae ATCC 23355 (setting [11]), the MIC is more than 16 µg/mL. Further, the MIC in the data set with S. aureus ATCC 29213 (setting [12]) was more than 16 µg/mL. The MIC in the data set on K. oxytoca ATCC 49131 (setting [13]) is more than 16 µg/mL. The MIC in the data set with E. faecalis ATCC 29212 (setting [6]) is more than 16 µg/mL. In addition, the MIC in the data set on E. faecalis ATCC 29212 (setting [7]) is more than 16 µg/mL.

`Cn1nnc(-c2cc(-c3ccc(F)cc3)sc2-c2ccc(F)cc2)n1` [DNM-132, 5-(2,5-bis(4-fluorophenyl)thiophen-3-yl)-2-methyl-2H-tetrazole] gave a melting point of 150 to 152 °C. In data set [4], this compound gave an MIC, PS. AER of more than 16 µg/mL. In addition, the MIC with S. marcescens ATCC 8100 (setting [8]) was more than 16 µg/mL. For the same compound, the MIC in the data set on E. aerogenes ATCC 13048 (setting [9]) was more than 16 µg/mL. Besides, the MIC in [1] (setting [5]) was more than 16 µg/mL. In addition, in [2] (setting [10]), the MIC was more than 16 µg/mL. Further, the MIC in data set [3] is more than 16 µg/mL. For the same compound, the MIC with MRSA ATCC 33591 is more than 16 µg/mL. In addition, the minimal inhibitory concentration (MIC) in the data set with E. cloacae ATCC 23355 (setting [11]) was more than 16 µg/mL. Also, in the data set on S. aureus ATCC 29213 (setting [12]), the MIC was more than 16 µg/mL. Besides, in the data set with K. oxytoca ATCC 49131 (setting [13]), the MIC is more than 16 µg/mL. Also, the MIC with E. faecalis ATCC 29212 (setting [6]) is more than 16 µg/mL. For the same compound, the MIC in the data set on E. faecalis ATCC 29212 (setting [7]) was more than 16 µg/mL.

On to `COC(=O)c1sc(-c2ccc(F)cc2)cc1-c1nnn(C)n1` [DNM-144, 5-(4-fluoro-phenyl)-3-(2-methyl-2H-tetrazol-5-yl)-thiophene-2-carboxylic acid methyl ester], for which the melting point lay in the range of 131.5 to 132.5 °C. The compound further came in with an MIC, PS. AER in [4] of more than 8 µg/mL. Besides, the MIC with S. marcescens ATCC 8100 (setting [8]) is more than 8 µg/mL. The MIC in the data set on E. aerogenes ATCC 13048 (setting [9]) was more than 8 µg/mL. Moreover, in [1] (setting [5]), the MIC was more than 8 µg/mL. Also, the MIC in data set [2] (setting [10]) is more than 8 µg/mL. In addition, the MIC in data set [3] was more than 8 µg/mL. Besides, the MIC in the data set with MRSA ATCC 33591 is more than 8 µg/mL. Further, the MIC in the data set with E. cloacae ATCC 23355 (setting [11]) is more than 8 µg/mL. The minimal inhibitory concentration (MIC) with S. aureus ATCC 29213 (setting [12]) was more than 8 µg/mL. Further, in the data set on K. oxytoca ATCC 49131 (setting [13]), the MIC is more than 8 µg/mL. Moreover, the MIC with E. faecalis ATCC 29212 (setting [6]) is more than 8 µg/mL. The MIC with E. faecalis ATCC 29212 (setting [7]) is more than 8 µg/mL.

`COC(=O)c1sc(-c2ccc(F)cc2)cc1-c1nnnn1C` [DNM-145, 5-(4-Fluoro-phenyl)-3-(1-methyl-1H-tetrazol-5-yl)-thiophene-2-carboxylic acid methyl ester] had an MIC, PS. AER in data set [4] of more than 4 µg/mL. The MIC (in the data set on S. marcescens ATCC 8100 (setting [8]); with E. aerogenes ATCC 13048 (setting [9]); in data set [1] (setting [5]); in data set [2] (setting [10]); in data set [3]; with MRSA ATCC 33591) was more than 4 µg/mL throughout. For the same compound, the MIC in the data set on E. cloacae ATCC 23355 (setting [11]), in the data set with S. aureus ATCC 29213 (setting [12]), in the data set on K. oxytoca ATCC 49131 (setting [13]), with E. faecalis ATCC 29212 (setting [6]) and with E. faecalis ATCC 29212 (setting [7]) was more than 4 µg/mL each time.
